Experimental data as given in US20090209644A1, “LIPOTOXICITY RELIEVING AGENT” (priority 2005, published 2009).
Where two headings read alike, the source gives them in different places.

Columns and labels:
Langerhans' islet = assay: Combined use of EPA and tolbutamide on palmitic acid-suppressed insulin secretion of isolated Langerhans' islet (Experimental Example 4); assay type: cell-based, mice (C57BL/6J); settings: mouse islets; for activity at 400 µM / activity at 5000 µM: Mus musculus, read-out: insulin secretion, % of control group; for activity at 400 µM / insulin secretion, % of control group / activity at 5000 µM: control = 100%
Procedure: Langerhans' islet was isolated from the pancreas of male mice (C57BL/6J, 8 week old, purchased from Clea Japan, Inc.) and cultured according to the procedure of Experimental Example 3, and effect of 50 μM EPA alone (the group of palmitic acid plus EPA), 5 mM tolbutamide alone (the group of palmitic acid plus tolbutamide), and combined use of 50M EPA and 5 mM tolbutamide (the group of palmitic acid plus the combination) on the suppression of the insulin secretion stimulated with 20 mM glucose and the insulin secretion stimulated with 30 mM KCl induced by 0.4 mM palmitic acid were measured according to the procedure of Experimental Example 1. Amount of insulin per 1 ng DNA of the Langerhans' islet was evaluated according to the procedure of Experimental Example 3.

[1] = test system: Min6 cells from mouse pancreatic β-cell; assay: Inhibition (prophylaxis) of lipotoxicity-impaired glucose-stimulated insulin secretion in Min6 cells (Experimental Example 1); assay type: cell-based; settings: for insulin secretion (amount of insulin per mg of the protein): stimulated with 20 mM glucose
Procedure: Min6 cells from mouse pancreatic β-cell (provided by Dr. Miyazaki of Osaka University) suspended in DMEM medium (manufactured by GIBCO, purchased from Iwai Chemicals Company) were seeded in a 24 well plate at 1.5×10^5 cells per well, and the cells were incubated in 5% CO2 at 37° C. for 24 hours. The medium was replaced with DMEM medium (manufactured by Sigma) containing 0.5% (v/v) fatty acid free bovine serum albumin (hereinafter abbreviated as BSA) and 5.5 mM glucose, and incubated in 5% CO2 at 37° C. for 48 hours with or without (control group) one of the following fatty acids, 0.4 mM palmitic acid (palmitic acid group), 50 μM EPA (EPA group), or 0.4 mM palmitic acid and 50 μM EPA (the group of palmitic acid plus EPA). The supernatant was removed from the cell culture of (1), and the cells were washed twice with phosphate buffered saline (hereinafter abbreviated as PBS(−)), and after adding 500 μL of Krebs-Ringer-Bicarbonate-Hepes buffer (hereinafter abbreviated as KRBH buffer) containing 0.5% (v/v) fatty acid free BSA and 2.8 mM glucose, the incubated was continued in 5% CO2 at 37° C. for 1 hour. The supernatant was removed from the cell culture, and after adding 500 μL of KRBH buffer containing 0.5% (v/v) BSA and 2.8 mM glucose, the incubation was continued in 5% CO2 at 37° C. for 1 hour, and the supernatant was collected as the sample which had been stimulated with 2.8 mM glucose. Next, the cells were washed twice with PBS(−), and incubated in KRBH buffer containing 0.5% (v/v) BSA and 20 mM glucose in 5% CO2 at 37° C. for 1 hour. The supernatant was collected as the sample which had been stimulated with 20 mM glucose. The samples collected were evaluated for their insulin concentration by Levis insulin assay kit (manufactured by Shibayagi and purchased from Nakayama Co., Ltd.) and for their protein concentration by the method of […] (BCA kit), and determine the amount of insulin per mg of the protein.

[2] = test system: Langerhans' islet (pancreatic β-cell); assay: Glucose-stimulated insulin secretion of Langerhans' islet isolated from fed mice (Experimental Example 3); assay type: in vivo, mice (C57BL/6J); settings: 20 mM glucose; for insulin secretion, % of control group: control = 100%
Text: Male mice (C57BL/6J, 8 week old, purchased from Clea Japan, Inc.) were fed on fish meal free F1 (manufactured by Funabashi Farms Co., Ltd.) for 1 week, and the mice were divided into 4 groups each including 9 to 10 mice. The 4 groups of mice were freely fed for 28 days on (1) fish meal free F1 (control group), (2) fish meal free F1 containing 20% by weight of tripalmitic acid added (palmitic acid group), (3) F1 feed not containing any fish meal having 20% by weight of tripalmitic acid and 5% by weight of EPA-E added (the group of palmitic acid plus EPA), and (4) F1 feed not containing any fish meal having 5% by weight of EPA-E added (EPA group). Before the start of the experiment, on 14th day, and on the final day, blood was taken from orbital venous plexus after fasting for 16 hours. The serum was separated, and blood free fatty acid was enzymatically measured by using NEFA Test Wako (Wako Pure Chemical Industries, Ltd.). Langerhans' islet was isolated by way of density gradient method from the pancreas that had been treated with collagenase, and cultivated in 10% (v/v) fetal bovine serum (purchased from Iwai Chemicals Company) and RPM 11640 medium) supplemented with 1% by weight of penicillin streptomycin (manufactured by Sigma) in 5% CO2 at 37° C. for 2 hours. The glucose-stimulated insulin secretion was then evaluated according to the procedure described in Experimental Example 1-(2). The Langerhans' islet was washed with PBS(−) and vigorously shaked in […] of TNE buffer (0.1M Tris-HCl, pH 7.4, 2M NaCl, 10 mM EDTA) to prepare the cell lysate. 20 μL of this cell lysate was added to 100 μL of chromogenic solution (1.2 μL of Hoechst 33258 (manufactured by Wako Pure Chemical Industries, Ltd.) added to 1 mL of TNE buffer), and the reaction was allowed to proceed at room temperature for at least 8 hours, and the measurement was conducted by using an excitation wavelength of 350 nm and a measurement wavelength of 450 nm. Similar evaluation was conducted by using bovine thymus DNA (manufactured by Sigma) to prepare a calibration curve to thereby enable determination of the DNA amount. Amount of insulin per μg of the DNA of the Langerhans' islet was measured.

[3] = Blood (serum) free fatty acid in palmitic acid fed mice (Experimental Example 3); assay type: in vivo, mice (C57BL/6J); settings: feed with 20% by weight tripalmitic acid, 28 days, vs control group
Text: Male mice (C57BL/6J, 8 week old, purchased from Clea Japan, Inc.) were fed on fish meal free F1 (manufactured by Funabashi Farms Co., Ltd.) for 1 week, and the mice were divided into 4 groups each including 9 to 10 mice. The 4 groups of mice were freely fed for 28 days on (1) fish meal free F1 (control group), (2) fish meal free F1 containing 20% by weight of tripalmitic acid added (palmitic acid group), (3) F1 feed not containing any fish meal having 20% by weight of tripalmitic acid and 5% by weight of EPA-E added (the group of palmitic acid plus EPA), and (4) F1 feed not containing any fish meal having 5% by weight of EPA-E added (EPA group). Before the start of the experiment, on 14th day, and on the final day, blood was taken from orbital venous plexus after fasting for 16 hours. The serum was separated, and blood free fatty acid was enzymatically measured by using NEFA Test Wako (Wako Pure Chemical Industries, Ltd.). […] The glucose-stimulated insulin secretion was then evaluated according to the procedure described in Experimental Example 1-(2).

Min6 cells = assay: Restoration of impaired insulin secretion in Min6 cells after palmitic acid load (Experimental Example 2); assay type: cell-based, mouse; settings: Min6, 0.4 mM palmitic acid load 48 h, 20 mM glucose; for insulin secretion, % of normal group: normal group = 100%
Procedure: (1-1) Min6 cells suspended in DMEM medium (manufactured by Gibco) were seeded in a 24 well plate at 1.5×10^5 cells per well, and the cells were incubated overnight in 5% CO2 at 37° C. (1-2) To each well, palmitic acid was added to a concentration of 0.4 mM, and BSA not containing the fatty acid was added to a concentration of 0.5% (v/v), and the incubation was continued in 5% CO2 at 37° C. for 48 hours. (1-3) The cells were washed twice with PBS(−), and the incubation was continued in 5% CO2 at 37° C. for 48 hours in DMEM medium (manufactured by Sigma) after adding palmitic acid (palmitic acid group), oleic acid (oleic acid group), EPA (EPA group), or DHA (DHA group) at 50 μM, or in the absence of the fatty acid (control group). In the meanwhile, the Min6 cells cultured in the above (1-1) were incubated in the DMEM medium (manufactured by Sigma) for 48 hours as in the case of the above (1-2) but without adding the 0.4 mM palmitic acid (normal group), and these cells were washed twice with the PBS(−) and incubated in the DMEM medium (manufactured by Sigma) in the absence of the fatty acid in 5% CO2 at 37° C. for another 48 hours as in the case of the control group of the above (1-3) to prepare the sample (normal group). The stimulation with glucose was conducted by repeating the procedure of Experimental Example 1(2), and the sample that had been stimulated with 2.8 mM glucose and the sample that had been stimulated with 20 mM glucose were collected and the amount of insulin per mg of the protein were measured.

[4] = islets of mice fed 20% tripalmitic acid 28 days
[5] = then 48 h without fatty acid (control group)
[6] = 0.4 mM palmitic acid plus 50 μM EPA, 5 mM tolbutamide or both, 20 mM glucose
[7] = 0.4 mM palmitic acid plus 50 μM EPA, 5 mM tolbutamide or both, 30 mM KCl
[8] = 0.4 mM palmitic acid plus 50 μM EPA, 5 mM tolbutamide or both, stimulated with 20 mM glucose
[9] = 0.4 mM palmitic acid plus 50 μM EPA, 5 mM tolbutamide or both, stimulated with 30 mM KCl
[10] = islets of mice fed 5% EPA-E alone 28 days
[11] = islets of mice fed 20% tripalmitic acid and 5% EPA-E 28 days

## CCCCCCCCCCCCCCCC(=O)O [palmitic acid]
Langerhans' islet; 0.4 mM palmitic acid alone, 20 mM glucose
  activity at 400 µM: 55.6%
Langerhans' islet; 0.4 mM palmitic acid alone, 30 mM KCl
  activity at 400 µM: 39.3%
Langerhans' islet; 0.4 mM palmitic acid alone, stimulated with 20 mM glucose
  insulin secretion (amount of insulin per 1 ng DNA of the Langerhans' islet): 572 pg
Langerhans' islet; 0.4 mM palmitic acid alone, stimulated with 30 mM KCl
  insulin secretion (amount of insulin per 1 ng DNA of the Langerhans' islet): 229 pg
[1]; Min6, 0.4 mM palmitic acid alone 48 h
  insulin secretion (amount of insulin per mg of the protein): 0.00091 mg
[1]; Mus musculus, Min6, 0.4 mM palmitic acid alone 48 h, 20 mM glucose, control = 100%, read-out: insulin secretion, % of control group
  activity at 400 µM: 23.7%
[2]; [4]
  insulin secretion (amount of insulin per μg of the DNA of the Langerhans' islet): 0.0046 µg
  insulin secretion, % of control group: 63%
[3]
  serum free fatty acid concentration: increased more significantly with time
Min6 cells; then 50 μM fatty acid 48 h
  insulin secretion (amount of insulin per mg of the protein): 0.000742 mg
  insulin secretion, % of normal group: 14.8%
Min6 cells; [5]
  insulin secretion (amount of insulin per mg of the protein): 0.002481 mg
  insulin secretion, % of normal group: 49.6%

## CCCCCCCC/C=C\CCCCCCCC(=O)O [oleic acid]
Min6 cells; then 50 μM fatty acid 48 h
  insulin secretion (amount of insulin per mg of the protein): 0.000659 mg
  insulin secretion, % of normal group: 13.2%

## CC/C=C\C/C=C\C/C=C\C/C=C\C/C=C\CCCC(=O)O [EPA, eicosapentaenoic acid]
Langerhans' islet; [6]
  insulin secretion, % of control group: 80.0%
Langerhans' islet; [7]
  insulin secretion, % of control group: 72.4%
Langerhans' islet; [8]
  insulin secretion (amount of insulin per 1 ng DNA of the Langerhans' islet): 823 pg
Langerhans' islet; [9]
  insulin secretion (amount of insulin per 1 ng DNA of the Langerhans' islet): 422 pg
[1]; Min6, 50 μM EPA alone 48 h
  insulin secretion (amount of insulin per mg of the protein): 0.003664 mg
[1]; Min6, 0.4 mM palmitic acid and 50 μM EPA 48 h, 20 mM glucose, control = 100%
  insulin secretion, % of control group: 54.6%
[1]; Min6, 0.4 mM palmitic acid and 50 μM EPA 48 h
  insulin secretion (amount of insulin per mg of the protein): 0.002096 mg
[1]; Mus musculus, Min6, 50 μM EPA alone 48 h, 20 mM glucose, control = 100%, read-out: insulin secretion, % of control group
  activity at 50 µM: 95.5%
[2]; [10]
  insulin secretion (amount of insulin per μg of the DNA of the Langerhans' islet): 0.0089 µg
  insulin secretion, % of control group: 121%
[2]; [11]
  insulin secretion (amount of insulin per μg of the DNA of the Langerhans' islet): 0.0082 µg
  insulin secretion, % of control group: 111%
Min6 cells; then 50 μM fatty acid 48 h
  insulin secretion (amount of insulin per mg of the protein): 0.004278 mg
  insulin secretion, % of normal group: 85.4%

## CC/C=C\C/C=C\C/C=C\C/C=C\C/C=C\C/C=C\CCC(=O)O [DHA, docosahexaenoic acid]
Min6 cells; then 50 μM fatty acid 48 h
  insulin secretion (amount of insulin per mg of the protein): 0.004073 mg
  insulin secretion, % of normal group: 81.4%

## CCCCNC(=O)NS(=O)(=O)c1ccc(C)cc1 [tolbutamide]
Langerhans' islet; [6]
  activity at 5000 µM: 65.4%
Langerhans' islet; [7]
  activity at 5000 µM: 54.2%
Langerhans' islet; [8]
  insulin secretion (amount of insulin per 1 ng DNA of the Langerhans' islet): 673 pg
Langerhans' islet; [9]
  insulin secretion (amount of insulin per 1 ng DNA of the Langerhans' islet): 316 pg
